# Measured values taken from article PMC5833756, “A novel ruthenium complex with xanthoxylin induces S-phase arrest and causes ERK1/2-mediated apoptosis in HepG2 cells through a p53-independent pathway” (Cell Death & Disease, 2018).
# Several values for one entry are separate records, joined by “and”; a condition that tells them apart may be missing. Identical values can stand only once. Like-named read-outs stand apart in the source and are kept apart here.
# Experiments:
# SCC-9 = format: cell-based, human
# HepG2 cells [1] = format: cell-based, human; conditions: DOX 2 µM, OXA 10 µM, RCX 12 µM
# Experimental: Briefly, the cells were harvested in a permeabilization solution containing 0.1% Triton X-100, 2 µg/mL PI, 0.1% sodium citrate and 100 µg/mL RNAse (all from Sigma-Aldrich) and incubated in the dark for 15 min at room temperature. Finally, cell fluorescence was measured by flow cytometry with a BD LSRFortessa cytometer using BD FACSDiva Software (BD Biosciences) and FlowJo Software 10 (FlowJo Lcc; Ashland, OR, USA). Ten thousand events were evaluated per experiment, and cellular debris was omitted from the analysis.
# HaCAT = format: cell-based; conditions: HaCAT (human keratinocyte, non-cancer), 72 h
# HepG2 cells [2] = assay: Gene expression analysis by qPCR array (TaqMan Array Human Molecular Mechanisms of Cancer); format: cell-based; set-up: key to RQ CCND3 gene expression / RQ CDC42 gene expression / RQ DVL1 gene expression / RQ FYN gene expression / RQ KRAS gene expression / RQ MAP2K1 gene expression / RQ MAPK1 gene expression / RQ MAPK14 gene expression / RQ NFKB2 gene expression / RQ RAF1 gene expression / RQ RELA gene expression / RQ BCAR1 gene expression: 2^-ΔΔCT relative quantification vs 0.2% DMSO control (calibrator = 1); conditions: HepG2, 12 h; RCX 12 µM, DOX 2 µM
# Experimental: HepG2 cells were plated in bottles for cell culture (7 × 10^4 cells/mL). […] The RNA was evaluated by fluorimetry using QuBit (Life Technologies; Camarillo, CA, USA). RNA reverse transcription was performed using a Superscript VILO™ Kit (Invitrogen Corporation; Waltham, MA, USA). A 96-well plate TaqMan® Array Human Molecular Mechanisms of Cancer (ID 4418806, Applied Biosystems^TM, Foster City, CA, USA) was used for the gene expression study by qPCR. The reactions were conducted in an ABI ViiA7 system (Applied Biosystems^TM; Foster City, CA, USA). The cycle conditions comprised 2 min at 50 °C, 20 s at 95 °C, then 40 cycles of 3 s at 95 °C and 30 s at 60 °C. The relative quantification (RQ) of mRNA expression was calculated by the 2^-ΔΔCT method[40] using Gene Expression Suite™ Software (Applied Biosystems^TM), and the cells treated with the negative control (0.2% DMSO) were used as a calibrator. The reactions were normalized by the geometric mean of the RQ of the reference genes GAPDH, 18S and HPRT1. All experiments were performed in DNase/RNase-free conditions.
# MRC-5 = format: cell-based; conditions: MRC5; MRC-5 (human lung fibroblast, non-cancer), 72 h
# B16-F10 = format: cell-based, mouse
smiles,measurement,setting,value
"COc1cccc2c1C(=O)c1c(O)c3c(c(O)c1C2=O)C[C@@](O)(C(=O)CO)C[C@@H]3O[C@H]1C[C@H](N)[C@H](O)[C@H](C)O1 [DOX, doxorubicin]",selectivity index (SI),SCC-9; IC50 HaCAT / IC50 SCC-9,0.04
same,selectivity index (SI),SCC-9; IC50 MRC5 / IC50 SCC-9,0.5
same,selectivity index (SI),SCC-9; IC50 PBMC / IC50 SCC-9,2
same,IC50,"SCC-9; SCC-9 (human oral squamous cell carcinoma), 72 h",2600 nM
same,DNA content G0/G1,"HepG2 cells [1]; HepG2, 12 h",51.9 ± 4.8%
same,DNA content G2/M,"HepG2 cells [1]; HepG2, 12 h",22.6 ± 2.6%
same,DNA content S,"HepG2 cells [1]; HepG2, 12 h",6.9 ± 0.1%
same,DNA content Sub-G0/G1,"HepG2 cells [1]; HepG2, 12 h",13.4 ± 1.2 %
same,DNA content G0/G1,"HepG2 cells [1]; HepG2, 24 h",20.9 ± 3.3 %
same,DNA content G2/M,"HepG2 cells [1]; HepG2, 24 h",66.9 ± 5.5 %
same,DNA content S,"HepG2 cells [1]; HepG2, 24 h",8.9 ± 2.3 %
same,DNA content Sub-G0/G1,"HepG2 cells [1]; HepG2, 24 h",16.8 ± 4.3 %
same,DNA content G0/G1,"HepG2 cells [1]; HepG2, 48 h",34.6 ± 2.7 %
same,DNA content G2/M,"HepG2 cells [1]; HepG2, 48 h",31.1 ± 3.3 %
same,DNA content S,"HepG2 cells [1]; HepG2, 48 h",9.1 ± 1.9%
same,DNA content Sub-G0/G1,"HepG2 cells [1]; HepG2, 48 h",20.9 ± 1.0 %
same,DNA content G0/G1,"HepG2 cells [1]; HepG2, 72 h",31.6 ± 5.1 %
same,DNA content G2/M,"HepG2 cells [1]; HepG2, 72 h",16.3 ± 1.1%
same,DNA content S,"HepG2 cells [1]; HepG2, 72 h",12.5 ± 1.1%
same,DNA content Sub-G0/G1,"HepG2 cells [1]; HepG2, 72 h",46.6 ± 2.8 %
same,IC50,HaCAT,100 nM
same,RQ ABL1 gene expression,HepG2 cells [2],2.628
same,RQ AKT1 gene expression,HepG2 cells [2],1.813
same,RQ AKT2 gene expression,HepG2 cells [2],3.3 and 3.275
same,RQ APC gene expression,HepG2 cells [2],1.780
same,RQ BAX gene expression,HepG2 cells [2],0.964
same,RQ BCAR1 gene expression,HepG2 cells [2],2.2 and 2.176
same,RQ BCL2L1 gene expression,HepG2 cells [2],0.663
same,RQ BCL2L11 gene expression,HepG2 cells [2],14.0 and 13.988
same,RQ BCL2 gene expression,HepG2 cells [2],1.1 and 1.140
same,RQ BID gene expression,HepG2 cells [2],1.433
same,RQ BRAF gene expression,HepG2 cells [2],1.0 and 1.012
same,RQ CASP8 gene expression,HepG2 cells [2],1.414
same,RQ CASP9 gene expression,HepG2 cells [2],0.957
same,RQ CCND1 gene expression,HepG2 cells [2],0.8 and 0.820
same,RQ CCND3 gene expression,HepG2 cells [2],1.2 and 1.151
same,RQ CCNE1 gene expression,HepG2 cells [2],1.535
same,RQ CDC42 gene expression,HepG2 cells [2],1.1 and 1.077
same,RQ CDK2 gene expression,HepG2 cells [2],4.331
same,RQ CDK4 gene expression,HepG2 cells [2],1.4 and 1.427
same,RQ CDKN1A gene expression,HepG2 cells [2],2.849
same,RQ CDKN1B gene expression,HepG2 cells [2],1.0 and 1.029
same,RQ CDKN2A gene expression,HepG2 cells [2],2.0 and 2.027
same,RQ CRK gene expression,HepG2 cells [2],2.5 and 2.519
same,RQ CTNNB1 gene expression,HepG2 cells [2],2.392
same,RQ CYCS gene expression,HepG2 cells [2],0.582
same,RQ DVL1 gene expression,HepG2 cells [2],0.5 and 0.539
same,RQ E2F1 gene expression,HepG2 cells [2],4.8 and 4.768
same,RQ EGFR gene expression,HepG2 cells [2],0.5 and 0.502
same,RQ ELK1 gene expression,HepG2 cells [2],2.1 and 2.142
same,RQ ERBB2 gene expression,HepG2 cells [2],1.8 and 1.746
same,RQ FADD gene expression,HepG2 cells [2],3.100
same,RQ FAS gene expression,HepG2 cells [2],2.5 and 2.459
same,RQ FGF2 gene expression,HepG2 cells [2],1.9 and 1.914
same,RQ FOS gene expression,HepG2 cells [2],1.514
same,RQ FYN gene expression,HepG2 cells [2],1.0 and 1.034
same,RQ FZD1 gene expression,HepG2 cells [2],5.8 and 5.811
same,RQ GRB2 gene expression,HepG2 cells [2],1.030
same,RQ GSK3B gene expression,HepG2 cells [2],0.590
same,RQ HRAS gene expression,HepG2 cells [2],1.4 and 1.370
same,RQ IGF1R gene expression,HepG2 cells [2],1.160
same,RQ ITGA2B gene expression,HepG2 cells [2],2.4 and 2.384
same,RQ ITGAV gene expression,HepG2 cells [2],2.101
same,RQ ITGB1 gene expression,HepG2 cells [2],1.941
same,RQ ITGB3 gene expression,HepG2 cells [2],1.707
same,RQ JUN gene expression,HepG2 cells [2],7.3 and 7.340
same,RQ KRAS gene expression,HepG2 cells [2],2.6 and 2.552
same,RQ MAP2K1 gene expression,HepG2 cells [2],2.4 and 2.441
same,RQ MAP3K5 gene expression,HepG2 cells [2],1.887
same,RQ MAPK1 gene expression,HepG2 cells [2],0.9 and 0.857
same,RQ MAPK3 gene expression,HepG2 cells [2],1.561
same,RQ MAPK8 gene expression,HepG2 cells [2],1.273
same,RQ MAPK14 gene expression,HepG2 cells [2],2.2 and 2.163
same,RQ MDM2 gene expression,HepG2 cells [2],0.9 and 0.928
same,RQ MYC gene expression,HepG2 cells [2],0.4 and 0.392
same,RQ NFKB1 gene expression,HepG2 cells [2],2.0 and 2.017
same,RQ NFKB2 gene expression,HepG2 cells [2],3.6 and 3.594
same,RQ NFKBIA gene expression,HepG2 cells [2],1.224
same,RQ NRAS gene expression,HepG2 cells [2],1.874
same,RQ PIK3CA gene expression,HepG2 cells [2],2.854
same,RQ PIK3R1 gene expression,HepG2 cells [2],6.207
same,RQ PTEN gene expression,HepG2 cells [2],0.476
same,RQ PTK2B gene expression,HepG2 cells [2],0.530
same,RQ PTK2 gene expression,HepG2 cells [2],1.0 and 0.948
same,RQ RAC1 gene expression,HepG2 cells [2],2.048
same,RQ RAF1 gene expression,HepG2 cells [2],3.5 and 3.447
same,RQ RB1 gene expression,HepG2 cells [2],1.230
same,RQ RELA gene expression,HepG2 cells [2],1.1 and 1.074
same,RQ RHOA gene expression,HepG2 cells [2],1.270
same,RQ SHC1 gene expression,HepG2 cells [2],1.9 and 1.865
same,RQ SMAD4 gene expression,HepG2 cells [2],2.6 and 2.601
same,RQ SOS1 gene expression,HepG2 cells [2],2.2 and 2.199
same,RQ SRC gene expression,HepG2 cells [2],1.036
same,RQ TCF3 gene expression,HepG2 cells [2],1.9 and 1.915
same,RQ TGFB1 gene expression,HepG2 cells [2],1.413
same,RQ TGFBR1 gene expression,HepG2 cells [2],1.403
same,RQ TGFBR2 gene expression,HepG2 cells [2],1.094
same,RQ TP53 gene expression,HepG2 cells [2],1.0 and 0.945
same,RQ VEGFA gene expression,HepG2 cells [2],1.8 and 1.772
same,IC50,MRC-5,1300 nM
same,selectivity index (SI),B16-F10; IC50 HaCAT / IC50 B16-F10,0.2
same,selectivity index (SI),B16-F10; IC50 MRC5 / IC50 B16-F10,2.2
same,selectivity index (SI),B16-F10; IC50 PBMC / IC50 B16-F10,8.7
same,IC50,"B16-F10; Mus musculus, B16-F10 (murine melanoma), 72 h",600 nM
